Drawing on patent publication US12077503B2, “Substituted cyclic amides and their use as herbicides” (FMC CORPORATION, priority 2015, dated 2024), this text covers pest or weed control for eight molecules.

Holding throughout (assay): Test A preemergence
Common to all, as to type: in vivo

Test [1] concerns ryegrass, Italian (Italian ryegrass, Lolium multiflorum). The note with it: Lolium multiflorum, pre-emergence, 240 h; for pest or weed control at 125 g/ha: 125 g ai/ha; for pest or weed control at 500 g/ha: 500 g ai/ha. Put shortly: (§1)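 In a loam soil and sand blend, planted seeds got a preemergence directed soil spray, and young plants at the one- to two-leaf stage, 2–10 cm high, got a postemergence application; ~10 d greenhouse hold; injury rated visually, 0 = none, 100 = complete control.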

The test system of a further test is Kochia (Kochia scoparia). The conditions noted are these: Bassia scoparia, pre-emergence, 240 h; for pest or weed control at 125 g/ha: 125 g ai/ha; for pest or weed control at 500 g/ha: 500 g ai/ha. Put shortly: as §1
Test [2] has as its system pigweed (Amaranthus retroflexus). The conditions noted are these: Amaranthus retroflexus, pre-emergence, 240 h; for pest or weed control at 125 g/ha: 125 g ai/ha; for pest or weed control at 500 g/ha: 500 g ai/ha.
The subject of test [3] is ragweed (common ragweed, Ambrosia elatior). The note with it: Ambrosia artemisiifolia, pre-emergence, 240 h; for pest or weed control at 125 g/ha: 125 g ai/ha; for pest or weed control at 500 g/ha: 500 g ai/ha. Put shortly:
as §1

In test [4] the test system is barnyardgrass (Echinochloa crus-galli). The note with it: Echinochloa crus-galli, pre-emergence, 240 h; for pest or weed control at 125 g/ha: 125 g ai/ha; for pest or weed control at 500 g/ha: 500 g ai/ha. Put shortly: as §1
Where [5] appears, read: preemergence, visual injury rating about 10 d after treatment, 0 to 100 scale (0 no effect, 100 complete control), read-out: Ryegrass, Italian plant response rating.
Where [6] appears, read: preemergence, visual injury rating about 10 d after treatment, 0 to 100 scale (0 no effect, 100 complete control), read-out: Kochia plant response rating.
The mark [7] stands for this setting: preemergence, visual injury rating about 10 d after treatment, 0 to 100 scale (0 no effect, 100 complete control), read-out: Pigweed plant response rating.
Setting [8] is: preemergence, visual injury rating about 10 d after treatment, 0 to 100 scale (0 no effect, 100 complete control), read-out: Ragweed plant response rating.
The mark [9] stands for this setting: preemergence, visual injury rating about 10 d after treatment, 0 to 100 scale (0 no effect, 100 complete control), read-out: Barnyardgrass plant response rating.
Where [10] appears, read: preemergence, 0 to 100 scale where 0 is no effect and 100 is complete control, approx. 10 d, read-out: Ryegrass, Italian plant response rating.
Where [11] appears, read: preemergence, 0 to 100 scale where 0 is no effect and 100 is complete control, approx. 10 d, read-out: Kochia plant response rating.
[12] abbreviates: preemergence, 0 to 100 scale where 0 is no effect and 100 is complete control, approx. 10 d, read-out: Pigweed plant response rating.
Setting [13] is: preemergence, 0 to 100 scale where 0 is no effect and 100 is complete control, approx. 10 d, read-out: Ragweed plant response rating.
The mark [14] stands for this setting: preemergence, 0 to 100 scale where 0 is no effect and 100 is complete control, approx. 10 d, read-out: Barnyardgrass plant response rating.
[15] abbreviates: preemergence, 0 to 100 scale where 0 is no effect and 100 is complete control, read-out: Ryegrass, Italian plant response rating.
Setting [16] is: preemergence, 0 to 100 scale where 0 is no effect and 100 is complete control, read-out: Kochia plant response rating.
Where [17] appears, read: preemergence, 0 to 100 scale where 0 is no effect and 100 is complete control, read-out: Pigweed plant response rating.
Setting [18] is: preemergence, 0 to 100 scale where 0 is no effect and 100 is complete control, read-out: Ragweed plant response rating.
Where [19] appears, read: preemergence, 0 to 100 scale where 0 is no effect and 100 is complete control, read-out: Barnyardgrass plant response rating.
Where [20] appears, read: Preemergence, visual injury vs untreated controls after approximately 10 d, read-out: Ryegrass, Italian plant response rating (0 to 100 scale where 0 is no effect and 100 is complete control).
Where [21] appears, read: Preemergence, visual injury vs untreated controls after approximately 10 d, read-out: Kochia plant response rating (0 to 100 scale where 0 is no effect and 100 is complete control).
The mark [22] stands for this setting: Preemergence, visual injury vs untreated controls after approximately 10 d, read-out: Pigweed plant response rating (0 to 100 scale where 0 is no effect and 100 is complete control).
[23] abbreviates: Preemergence, visual injury vs untreated controls after approximately 10 d, read-out: Ragweed plant response rating (0 to 100 scale where 0 is no effect and 100 is complete control).
The mark [24] stands for this setting: Preemergence, visual injury vs untreated controls after approximately 10 d, read-out: Barnyardgrass plant response rating (0 to 100 scale where 0 is no effect and 100 is complete control).

Like-named read-outs stand apart in the source and are kept apart here.

Consider `O=C(Nc1ccccc1F)[C@H]1C(=S)NC[C@@H]1c1ccc(C(F)(F)F)cc1` (racemic) [Compound 1047], for which the pest or weed control at 125 g/ha turned out to be 0% in test [1] (Preemergence, visual injury rating after approximately 10 d, read-out: Ryegrass, Italian plant response rating (0 to 100 scale, 0 is no effect, 100 is complete control)); 60% in the test with Kochia (Kochia scoparia) (Preemergence, visual injury rating after approximately 10 d, read-out: Kochia plant response rating (0 to 100 scale, 0 is no effect, 100 is complete control)); 0% in test [2] (Preemergence, visual injury rating after approximately 10 d, read-out: Pigweed plant response rating (0 to 100 scale, 0 is no effect, 100 is complete control)); 40% in test [3] (Preemergence, visual injury rating after approximately 10 d, read-out: Ragweed plant response rating (0 to 100 scale, 0 is no effect, 100 is complete control)); 30% in test [4] (Preemergence, visual injury rating after approximately 10 d, read-out: Barnyardgrass plant response rating (0 to 100 scale, 0 is no effect, 100 is complete control)). Besides, the pest or weed control at 500 g/ha in test [1] (setting [5]) worked out at 0%; with Kochia (Kochia scoparia) (setting [6]) it was 80%; in test [2] (setting [7]), 20%; in test [3] (setting [8]), 60%; in test [4] (setting [9]), 80%.
For the molecule `Cc1ccc([C@H]2CNC(=O)[C@]2(Br)C(=O)Nc2cccc(F)c2F)cc1F` (racemic) [Compound 1073], the pest or weed control at 125 g/ha in test [1] (setting [10]) amounted to 0%; with Kochia (Kochia scoparia) (setting [11]) it was 0%; in test [2] (setting [12]) it was 100%; in test [3] (setting [13]), 10%; in test [4] (setting [14]), 100%. The pest or weed control at 500 g/ha is 20% in test [1] (setting [5]); 70% in the test on Kochia (Kochia scoparia) (setting [6]); 100% in test [2] (setting [7]); 30% in test [3] (setting [8]); 100% in test [4] (setting [9]).
Consider `C/C=C/N1C[C@@H](c2cccc(C(F)(F)F)c2)[C@H](C(=O)Nc2ccccc2F)C1=O` (racemic) [Compound 1094], for which the pest or weed control at 125 g/ha (in test [1] (setting [10]); in the test with Kochia (Kochia scoparia) (setting [11]); in test [2] (setting [12]); in test [3] (setting [13]); in test [4] (setting [14])) was 0% each time. The pest or weed control at 500 g/ha in test [1] (setting [5]) is 0%; in the test on Kochia (Kochia scoparia) (setting [6]), 0%; in test [2] (setting [7]), 0%; in test [3] (setting [8]), 0%; in test [4] (setting [9]) it was 80%.
`CN1C[C@H](c2ccc(C(F)(F)F)cc2)[C@@](F)(C(=O)Nc2cccc(F)c2F)C1=O` (racemic) [Compound 1151]: the pest or weed control at 125 g/ha worked out at 70% in test [1] (setting [10]); 70% in the test on Kochia (Kochia scoparia) (setting [11]); 80% in test [2] (setting [12]); 0% in test [3] (setting [13]); 90% in test [4] (setting [14]). Further, the pest or weed control at 500 g/ha in test [1] (setting [15]) was found to be 70%; with Kochia (Kochia scoparia) (setting [16]) it was 80%; in test [2] (setting [17]) it was 100%; in test [3] (setting [18]) it was 60%; in test [4] (setting [19]) it was 100%.
Consider `CC(C)c1cccc([C@H]2CN(C)C(=O)[C@@H]2C(=O)Nc2ccccc2S(C)(=O)=O)c1` [Compound 820], for which the pest or weed control at 125 g/ha was 60% in test [1] (setting [15]); 70% in the test on Kochia (Kochia scoparia) (setting [16]); 40% in test [2] (setting [17]); 20% in test [3] (setting [18]); 90% in test [4] (setting [19]). Besides, the pest or weed control at 500 g/ha in test [1] (setting [20]) was 80%; in the test with Kochia (Kochia scoparia) (setting [21]) it was 80%; in test [2] (setting [22]), 70%; in test [3] (setting [23]) it was 60%; in test [4] (setting [24]), 100%.
Turning to `CC(C)c1cccc([C@H]2CN(C)C(=O)[C@@H]2C(=O)Nc2ccc(F)cc2F)c1` [Compound 821], the pest or weed control at 125 g/ha was 80% in test [1] (setting [15]); 70% in the test on Kochia (Kochia scoparia) (setting [16]); 50% in test [2] (setting [17]); 0% in test [3] (setting [18]); 90% in test [4] (setting [19]). The pest or weed control at 500 g/ha in test [1] (setting [20]) is 90%; in the test on Kochia (Kochia scoparia) (setting [21]), 90%; in test [2] (setting [22]), 50%; in test [3] (setting [23]) it was 0%; in test [4] (setting [24]), 90%.
For `CN1C[C@H](c2cccc(F)c2)[C@@H](C(=O)Nc2ccccc2F)C1=O` [Compound 822], the pest or weed control at 125 g/ha in test [1] (setting [15]) is 20%; in the test with Kochia (Kochia scoparia) (setting [16]), 70%; in test [2] (setting [17]), 0%; in test [3] (setting [18]), 0%; in test [4] (setting [19]) it was 90%. Also, the pest or weed control at 500 g/ha came to 40% in test [1] (setting [20]); 80% in the test on Kochia (Kochia scoparia) (setting [21]); 50% in test [2] (setting [22]); 30% in test [3] (setting [23]); 100% in test [4] (setting [24]).
In the case of `Cc1c(F)cccc1NC(=O)[C@H]1C(=O)NC[C@@H]1c1cccc(C(F)(F)F)c1` [Compound 826], the pest or weed control at 125 g/ha in test [1] (setting [15]) was 70%; in the test on Kochia (Kochia scoparia) (setting [16]) it was 70%; in test [2] (setting [17]), 0%; in test [3] (setting [18]), 20%; in test [4] (setting [19]) it was 90%. Moreover, the pest or weed control at 500 g/ha in test [1] (setting [20]) was 80%; in the test with Kochia (Kochia scoparia) (setting [21]), 90%; in test [2] (setting [22]), 60%; in test [3] (setting [23]), 80%; in test [4] (setting [24]) it was 100%.
